Test results: US9187472B2 (AbbVie Inc., priority 2012, dated 2015)

What was measured:
[1] = target: NAMPT (Homo sapiens, UniProt P43490); assay: TR-FRET Binding Assay of NAMPT with PRPP; settings: with 200 μM PRPP and 2.5 mM ATP; 2 nM NAMPT, 2 nM probe, 16 hours equilibration
Method in brief: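 Human NAMPT (2 nM) with 2 nM probe and 1 nM Tb-anti-His antibody, plus 200 μM PRPP and 2.5 mM ATP, 2% DMSO. TR-FRET read after 16 h equilibration, permitting possible enzymatic modification of test compounds; data processing as for the substrate-free format.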

[2] = system: PC3 cells; assay: NAMPT Cell Proliferation Assay; type: cell-based; settings: Homo sapiens, PC-3, 120 h, 5 days incubation, cell viability by Cell Titer Glo
Method in brief: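 PC3 cells were plated at 500 cells/well in RPMI with 10% heat-inactivated FBS, left to attach overnight, then given compounds in 10-fold dilutions from 10 μM to 1×10^−5 μM. After 5 days at 37° C and 5% CO2, viability was read by luminescence and IC50s came from sigmoidal fits of percent inhibition.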

[3] = target: NAMPT (human, recombinant, C-terminally His-tagged) (Homo sapiens, UniProt P43490); assay: Time-Resolved Fluorescence Resonance Energy Transfer (TR-FRET) Binding Assay of NAMPT; settings: without substrates; 6.8 nM NAMPT, 200 nM probe, 3 hours equilibration
Chain of NAMPT (human, recombinant, C-terminally His-tagged) (P43490 whole entry): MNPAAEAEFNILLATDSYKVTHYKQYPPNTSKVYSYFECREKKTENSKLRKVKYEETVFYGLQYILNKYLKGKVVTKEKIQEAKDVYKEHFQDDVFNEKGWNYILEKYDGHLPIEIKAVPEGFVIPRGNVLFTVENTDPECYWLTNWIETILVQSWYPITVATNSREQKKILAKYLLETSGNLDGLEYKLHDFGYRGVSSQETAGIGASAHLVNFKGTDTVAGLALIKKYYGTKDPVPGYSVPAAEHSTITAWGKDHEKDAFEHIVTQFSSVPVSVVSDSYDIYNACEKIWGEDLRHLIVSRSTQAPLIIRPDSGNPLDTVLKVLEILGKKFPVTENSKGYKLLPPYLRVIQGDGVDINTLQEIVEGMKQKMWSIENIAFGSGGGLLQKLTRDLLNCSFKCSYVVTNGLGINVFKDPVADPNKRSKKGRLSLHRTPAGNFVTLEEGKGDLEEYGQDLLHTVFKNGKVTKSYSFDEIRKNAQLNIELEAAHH
Method in brief: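 A TR-FRET probe-displacement assay used 6.8 nM His-tagged recombinant human NAMPT, 200 nM Oregon Green 488-labelled nicotinamide-competitive probe and 1 nM Tb-anti-His antibody. Buffer was HEPES pH 7.5 with NaCl, MgCl2, DTT and glycerol, plus 2% DMSO, equilibrated 3 h at room temperature. Em520/Em495 ratios, normalized to controls, gave IC50 by four-parameter logistic fit.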

Chain of NAMPT (P43490 whole entry): as above

| SMILES | IC50 [1] [nM] | IC50 [2] [nM] | IC50 [3] [nM] |
| --- | --- | --- | --- |
| O=C(Nc1ccc(C2CCN(C(=O)CC3CCCO3)CC2)cc1)Nc1ccc2nccn2c1 (stereo not drawn) [Example 111, 1-imidazo[1,2-a]pyridin-6-yl-3-{4-[1-(tetrahydrofuran-2-ylacetyl)piperidin-4-yl]phenyl}urea] | 0.209 | 75.5 | 263 |
| O=C(Nc1ccc(C2CCN(C(=O)c3ccccc3)CC2)cc1)Nc1ccc2nccn2c1 [Example 112, 1-[4-(1-benzoylpiperidin-4-yl)phenyl]-3-imidazo[1,2-a]pyridin-6-ylurea] | 0.169 | 6.96 | 46.5 |
| O=C(Nc1ccc(C2CCN(C(=O)C3CCCO3)CC2)cc1)Nc1ccc2nccn2c1 (stereo not drawn) [Example 113, 1-imidazo[1,2-a]pyridin-6-yl-3-{4-[1-(tetrahydrofuran-2-ylcarbonyl)piperidin-4-yl]phenyl}urea] | 0.169 | 93.3 | 356 |
| CC(C)(C)OC(=O)N1CCC(Oc2ccc(C(=O)NCc3ccc4nccn4c3)cc2)CC1 [Example 114, tert-butyl 4-{4-[(imidazo[1,2-a]pyridin-6-ylmethyl)carbamoyl]phenoxy}piperidine-1-carboxylate] | 1.11 | 142 | 818 |
| CC(C)OCCNC(=O)N(CC1CCCO1)c1ncc(C(=O)NCc2ccc3nccn3c2)s1 (stereo not drawn) [Example 115, N-(imidazo[1,2-a]pyridin-6-ylmethyl)-2-[{[2-(propan-2-yloxy)ethyl]carbamoyl}(tetrahydrofuran-2-ylmethyl)amino]-1,3-thiazole-5-carboxamide] | 0.676 | 6.38 | 243 |
| O=C(NCc1ccc2nccn2c1)c1cnc(N2C(=O)OCC2C2CCOC2)s1 (stereo not drawn) [Example 116, N-(imidazo[1,2-a]pyridin-6-ylmethyl)-2-[2-oxo-4-(tetrahydrofuran-3-yl)-1,3-oxazolidin-3-yl]-1,3-thiazole-5-carboxamide] | 0.69 | 61.3 | 863 |
| O=C(CC1CCCC1)Nc1ccc(C(=O)NCc2ccn3ccnc3c2)cc1 [Example 117, 4-[(cyclopentylacetyl)amino]-N-(imidazo[1,2-a]pyridin-7-ylmethyl)benzamide] | 0.436 | 63.9 | 392 |
| O=C(CC1CCCC1)Nc1ccc(NC(=O)NCc2ccn3ccnc3c2)cc1 [Example 118, 2-cyclopentyl-N-(4-{[(imidazo[1,2-a]pyridin-7-ylmethyl)carbamoyl]amino}phenyl)acetamide] | 0.234 | 18.2 | 35.2 |
| CC(C)Cn1cc(-c2ccc(C(=O)NCc3ccc4nccn4c3)cc2)cn1 [Example 119, N-(imidazo[1,2-a]pyridin-6-ylmethyl)-4-[1-(2-methylpropyl)-1H-pyrazol-4-yl]benzamide] | 0.783 | 146 | 942 |
| CC(C)Cn1cc(-c2ccc(C(=O)NCc3ccc4nccn4c3)o2)cn1 [Example 120, N-(imidazo[1,2-a]pyridin-6-ylmethyl)-5-[1-(2-methylpropyl)-1H-pyrazol-4-yl]furan-2-carboxamide] | 0.367 | 90.8 | 73.9 |
| COCCC(=O)N(CC1CCCO1)c1ncc(C(=O)NCc2ccn3ccnc3c2)s1 (stereo not drawn) [Example 121, N-(imidazo[1,2-a]pyridin-7-ylmethyl)-2-[(3-methoxypropanoyl)(tetrahydrofuran-2-ylmethyl)amino]-1,3-thiazole-5-carboxamide] | 0.234 | 3.91 | 486 |
| O=C(NCc1ccc2nccn2c1)c1cnc(N2CC(c3ccccc3)OC2=O)s1 (stereo not drawn) [Example 122, N-(imidazo[1,2-a]pyridin-6-ylmethyl)-2-(2-oxo-5-phenyl-1,3-oxazolidin-3-yl)-1,3-thiazole-5-carboxamide] | 4.76 | 172 | 255 |
| Cc1ncc(CC(=O)N(CC2CCCO2)c2ncc(C(=O)NCc3ccc4nccn4c3)s2)s1 (stereo not drawn) [Example 123, N-(imidazo[1,2-a]pyridin-6-ylmethyl)-2-{[(2-methyl-1,3-thiazol-5-yl)acetyl](tetrahydrofuran-2-ylmethyl)amino}-1,3-thiazole-5-carboxamide] | 2.57 | 7.43 | 133 |
| Cc1nc(CC(=O)N(CC2CCCO2)c2ncc(C(=O)NCc3ccc4nccn4c3)s2)cs1 (stereo not drawn) [Example 124, N-(imidazo[1,2-a]pyridin-6-ylmethyl)-2-{[(2-methyl-1,3-thiazol-4-yl)acetyl](tetrahydrofuran-2-ylmethyl)amino}-1,3-thiazole-5-carboxamide] | 2.12 | 20.8 | 1100 |
| Cc1cc(CC(=O)N(CC2CCCO2)c2ncc(C(=O)NCc3ccc4nccn4c3)s2)on1 (stereo not drawn) [Example 125, N-(imidazo[1,2-a]pyridin-6-ylmethyl)-2-{[(3-methyl-1,2-oxazol-5-yl)acetyl](tetrahydrofuran-2-ylmethyl)amino}-1,3-thiazole-5-carboxamide] | 2.09 | 23 | 547 |
| O=C(NCc1ccc2nccn2c1)c1cnc(N(CC2CCCO2)C(=O)CCc2cc(Cl)no2)s1 (stereo not drawn) [Example 126, 2-{[3-(3-chloro-1,2-oxazol-5-yl)propanoyl](tetrahydrofuran-2-ylmethyl)amino}-N-(imidazo[1,2-a]pyridin-6-ylmethyl)-1,3-thiazole-5-carboxamide] | 0.963 | 3.96 | 102 |
| COc1cc(CCC(=O)N(CC2CCCO2)c2ncc(C(=O)NCc3ccc4nccn4c3)s2)on1 (stereo not drawn) [Example 127, N-(imidazo[1,2-a]pyridin-6-ylmethyl)-2-{[3-(3-methoxy-1,2-oxazol-5-yl)propanoyl](tetrahydrofuran-2-ylmethyl)amino}-1,3-thiazole-5-carboxamide] | 0.522 | 2.34 | 52.2 |
| Cc1noc(C)c1CC(=O)N(CC1CCCO1)c1ncc(C(=O)NCc2ccc3nccn3c2)s1 (stereo not drawn) [Example 128, 2-{[(3,5-dimethyl-1,2-oxazol-4-yl)acetyl](tetrahydrofuran-2-ylmethyl)amino}-N-(imidazo[1,2-a]pyridin-6-ylmethyl)-1,3-thiazole-5-carboxamide] | 0.873 | 2.21 | 30.7 |
| Cc1noc(C)c1CCC(=O)N(CC1CCCO1)c1ncc(C(=O)NCc2ccc3nccn3c2)s1 (stereo not drawn) [Example 129, 2-{[3-(3,5-dimethyl-1,2-oxazol-4-yl)propanoyl](tetrahydrofuran-2-ylmethyl)amino}-N-(imidazo[1,2-a]pyridin-6-ylmethyl)-1,3-thiazole-5-carboxamide] | 0.634 | 2.74 | 11.6 |
| Cn1cc(CCC(=O)N(CC2CCCO2)c2ncc(C(=O)NCc3ccc4nccn4c3)s2)cn1 (stereo not drawn) [Example 130, N-(imidazo[1,2-a]pyridin-6-ylmethyl)-2-{[3-(1-methyl-1H-pyrazol-4-yl)propanoyl](tetrahydrofuran-2-ylmethyl)amino}-1,3-thiazole-5-carboxamide] | 0.981 | 6.55 | 53.2 |
| Cc1ncsc1CCC(=O)N(CC1CCCO1)c1ncc(C(=O)NCc2ccc3nccn3c2)s1 (stereo not drawn) [Example 131, N-(imidazo[1,2-a]pyridin-6-ylmethyl)-2-{[3-(4-methyl-1,3-thiazol-5-yl)propanoyl](tetrahydrofuran-2-ylmethyl)amino}-1,3-thiazole-5-carboxamide] | 1.67 | 2.17 | 15.2 |
| O=C(NCc1ccc2nccn2c1)c1cnc(N(CC2CCCO2)C(=O)Cc2nnn[nH]2)s1 (stereo not drawn) [Example 132, N-(imidazo[1,2-a]pyridin-6-ylmethyl)-2-[(tetrahydrofuran-2-ylmethyl)(1H-tetrazol-5-ylacetyl)amino]-1,3-thiazole-5-carboxamide] | 13.3 | 523 | 155 |
| O=C(NCc1ccc2nccn2c1)c1cnc(N(CC2CCCO2)C(=O)CCc2ccno2)s1 (stereo not drawn) [Example 133, N-(imidazo[1,2-a]pyridin-6-ylmethyl)-2-{[3-(1,2-oxazol-5-yl)propanoyl](tetrahydrofuran-2-ylmethyl)amino}-1,3-thiazole-5-carboxamide] | 0.709 | 2.16 | 67 |
| O=C(NCc1ccc2nccn2c1)c1cnc(N(CC2CCCO2)C(=O)Cc2ccon2)s1 (stereo not drawn) [Example 134, N-(imidazo[1,2-a]pyridin-6-ylmethyl)-2-[(1,2-oxazol-3-ylacetyl)(tetrahydrofuran-2-ylmethyl)amino]-1,3-thiazole-5-carboxamide] | 1.49 | 6.54 | 303 |
| O=C(NCc1ccc2nccn2c1)c1cnc(N(CC2CCCO2)C(=O)CCc2cnoc2)s1 (stereo not drawn) [Example 135, N-(imidazo[1,2-a]pyridin-6-ylmethyl)-2-{[3-(1,2-oxazol-4-yl)propanoyl](tetrahydrofuran-2-ylmethyl)amino}-1,3-thiazole-5-carboxamide] | 1.27 | 6.36 | 73.8 |
| O=C(NCc1ccc2nccn2c1)c1cnc(N(CC2CCCO2)C(=O)CCc2nccs2)s1 (stereo not drawn) [Example 136, N-(imidazo[1,2-a]pyridin-6-ylmethyl)-2-{(tetrahydrofuran-2-ylmethyl)[3-(1,3-thiazol-2-yl)propanoyl]amino}-1,3-thiazole-5-carboxamide] | 0.512 | 3.05 | 72.7 |
